Test results as given in patent US5861400A, “Pharmaceutical compounds” (Xenova Limited, priority 1994, dated 1999).
Structures can show the parent of a compound that is named as a salt. Blank lines part the entries; values can stand above or below the compound they belong to.

Tests used:
[1] = Kamei et al, J. Antibiotics vol XLIII No. 8, 1018-1020; cited from earlier work
AR 1.0 cells [2] = experiment: Proliferation/toxicity assay, compound alone and with cytotoxic agent (sulphorhodamine B); type: cell-based, mouse
AR 1.0 cells [3] = experiment: Drug accumulation assay (tritiated daunorubicin, AR 1.0 cells); type: cell-based, mouse; settings: for Emax: 100% = accumulation with 100 μM Verapamil, compounds 100 nM to 100 μM, read-out: MAX accumulation (% 100 μm VRP); for IC50: daunorubicin accumulation, 37° C., DNR 2 μM
Description: (§1) The EMT6 mouse mammary carcinoma cell line and the MDR resistant subline AR 1.0 were cultured in RPMI 1640 medium containing 10% foetal calf serum and 2mM glutamine at 37° C. in 5% CO2. Cells were passaged between 1 in 200 and 1 in 2000 in the case of the parental cell line and between 1 in 20 and 1 in 200 in the case of the MDR resistant subline, after trypsinisation (0.25% trypsin, 0.2 gl^-1, EDTA).
1. Drug accumulation assay
AR 1.0 cells were seeded into 96 well opaque culture plates (Canberra Packard). The assay medium contained a mixture of tritiated Daunorubicin (DNR), a cytotoxic agent, and unlabelled DNR (0.25μ Ci/ml; 2 μM). Compounds of formula A were serially diluted in assay medium over a range of concentrations from 100 nM to 100 μM. The cells were incubated at 37° C. for 1 hr before washing and counting of cell associated radioactivity. Each assay included a titration of the known resistance modifying agent Verapamil as positive control. Results were expressed as % maximum accumulation where 100% accumulation is that observed in the presence of 100 μM Verapamil.

AR 1.0 cells [4] = experiment: Potentiation of Doxorubicin toxicity (potentiation index, AR 1.0 cells); type: cell-based, mouse; settings: doxorubicin 0.5 nM-50 μM, four days; for Potentiation Index (at 5 μM): Conc Comp 5 μM; for Potentiation Index: Conc Comp 3 μM
Description: as §1
2. Potentiation of Doxorubicin toxicity
Compounds of formula A were examined for their ability to potentiate the toxicity of doxorubicin in AR 1.0 cells. In initial proliferation assays compounds were titrated against a fixed concentration of doxorubicin (0.5-1 μM) which alone is non-toxic to AR 1.0 cells. Incubations with doxorubicin were over a four day period before quantitation of proliferation using the calorimetric sulphorhodamine B assay (Skehan et al; J. Natl. Cancer Inst. 82 pp 1107-1112 (1990)).
Cells were cultured for four days with concentrations of doxorubicin over the range of 0.5 nM-50 μM in the presence of Verapramil at its maximum subtoxic level determined from previous experiments. Proliferation was quantified as described by Skehan et al, loc cit. The IC50 (concentration required to reduce proliferation to 50% of the untreated controls) for doxorubicin alone and with the Verapamil were derived and used to calculate the potentiation index (PI): […]

MDR cells = settings: in vitro and in vivo; Cancer Res., 41, 1967-1972 (1981); cited from earlier work
[5] = Mus musculus, compound alone, read-out: COMPOUND TOXICITY (IC50 μM)
[6] = cytotoxic agent (doxorubicin) 1.00 μg/ml, 5760 min, read-out: TOXICITY WITH CYTOTOXIC AGENT (IC 50 μM)
[7] = cytotoxic agent (doxorubicin) 0.50 μg/ml, 5760 min, read-out: TOXICITY WITH CYTOTOXIC AGENT (IC 50 μM)
[8] = compound alone, read-out: COMPOUND TOXICITY (IC50 μM)

Compound: O=c1[nH]/c(=C\c2ccccc2)c(=O)[nH]/c1=C\c1ccccc1 [B]
potentiation of the cytotoxicity of vincristine [1]: have utility as potentiators of the cytotoxicity of vincristine

IC50 (AR 1.0 cells [3]; Mus musculus, 1 h): 50 µM
Compound: COc1ccc(/C=c2\[nH]c(=O)/c(=C/c3cccs3)n(C)c2=O)cc1 [Compound 1597, (3Z,6Z)-3-(4-Methoxybenzylidene)-1-methyl-6-(2-thienylmethylene)-2,5-piperazinedione]
IC50 (AR 1.0 cells [2]; [5]): 25 µM
IC50 (AR 1.0 cells [2]; [6]): 6 µM
Emax (AR 1.0 cells [3]; Mus musculus, 1 hr): 59.1%

Compound: Cn1c(=O)/c(=C/c2cn(C(=O)OC(C)(C)C)c3ccccc23)n(C)c(=O)/c1=C/c1ccccc1 [Compound 1800, (3Z,6Z)-3-Benzylidene-1,4-dimethyl-6-(1-tert-butoxycarbonyl-3-indolyl)methylene-2,5-piperazinedione]
Potentiation Index (at 5 μM) (AR 1.0 cells [4]): 40
IC50 (AR 1.0 cells [2]; [5]): 10 µM
IC50 (AR 1.0 cells [2]; [6]): 0.8 µM
IC50 (AR 1.0 cells [3]; Mus musculus, 1 h): 7 µM

Compound: Cn1c(=O)/c(=C/c2cn(C(=O)OC(C)(C)C)c3ccccc23)n(C)c(=O)/c1=C/c1cccs1 [Compound 1834, (3Z,6Z)-1,4-Dimethyl-3-(1-tert-butoxycarbonyl-3-indolyl)methylene-6-(2-thenylidene)-2,5-piperazinedione]
Potentiation Index (AR 1.0 cells [4]): 30
IC50 (AR 1.0 cells [2]; [5]): 10 µM
IC50 (AR 1.0 cells [2]; [7]): 0.8 µM
IC50 (AR 1.0 cells [3]; Mus musculus, 1 h): 5 µM

IC50 (AR 1.0 cells [3]; Mus musculus, 1 h): 20 µM
Compound: O=c1[nH]/c(=C\c2ccncc2)c(=O)n(Cc2ccccc2)/c1=C\c1ccccc1 [Compound 1839, (3Z,6Z)-1-Benzyl-6-benzylidene-3-(4-pyridyl)methylene-2,5-piperazinedione]
Potentiation Index (AR 1.0 cells [4]): 15
IC50 (AR 1.0 cells [2]; [8]): 30 µM
IC50 (AR 1.0 cells [2]; [7]): 1.5 µM

IC50 (AR 1.0 cells [3]; 1 hr): 12 µM
Compound: O=c1[nH]/c(=C\c2ccncc2)c(=O)n(Cc2ccccc2)/c1=C\c1ccccc1 [Compound 1840, (3Z,6Z)-1-Benzyl-6-benzylidene-3-(4-pyridyl)methylene-2,5-hydrochloride]
IC50 (AR 1.0 cells [2]; [8]): 5 µM
IC50 (AR 1.0 cells [2]; [7]): 1 µM

IC50 (AR 1.0 cells [3]; Mus musculus, 1 h): 6 µM
Compound: Cn1c(=O)/c(=C/C2CCCCC2)n(C)c(=O)/c1=C/c1ccccc1 [Compound 1871, (3Z,6Z)-3-Benzylidene-6-cyclohexylmethylene-1,4-dimethyl-2,5-piperazinedione]
Potentiation Index (at 5 μM) (AR 1.0 cells [4]): 20
IC50 (AR 1.0 cells [2]; [5]): 40 µM
IC50 (AR 1.0 cells [2]; [7]): 1 µM

Compound: Cn1c(=O)/c(=C/c2cn(C(=O)OC(C)(C)C)c3ccccc23)n(C)c(=O)/c1=C/c1c(Cl)cccc1Cl [Compound 1873, (3Z,6Z)-6-(2,6-dichlorobenzylidene)-3-(1-tertbutoxycarbonyl-3-indolyl)methylene-1,4-dimethyl-2,5-piperazinedione]
IC50 (AR 1.0 cells [2]; [5]): 8 µM
Emax (AR 1.0 cells [3]; Mus musculus, 1 hr): 56%
IC50 (AR 1.0 cells [3]; Mus musculus, 1 h): 5 µM

Compound: COc1ccc(/C=c2/c(=O)n(Cc3ccccc3)/c(=C\c3cn(C(=O)OC(C)(C)C)c4ccccc34)c(=O)n2C)cc1 [Compound 1874, (3Z,6Z)-4-benzyl-3-(1-tertbutoxycarbonyl-3-indolyl)methylene-6-(4-methoxybenzylidene)-1-methyl-2,5-piperazinedione]
Potentiation Index (at 5 μM) (AR 1.0 cells [4]): 20
IC50 (AR 1.0 cells [3]; Mus musculus, 1 h): 10 µM

Compound: Cn1c(=O)/c(=C/c2cn(C(=O)OC(C)(C)C)c3ccccc23)n(C)c(=O)/c1=C/c1ccoc1 [Compound 1875, (3Z,6Z)-6-(3-furylmethylene)-6-(1-tertbutoxycarbonyl-3-indolyl)methylene-1,4-dimethyl-2,5-piperazinedione]
IC50 (AR 1.0 cells [2]; [5]): 10 µM
IC50 (AR 1.0 cells [2]; [7]): 0.8 µM
IC50 (AR 1.0 cells [3]; Mus musculus, 1 h): 5 µM

IC50 (AR 1.0 cells [3]; Mus musculus, 1 h): 7 µM
Compound: COc1ccc(/C=c2/c(=O)n(Cc3ccccc3)/c(=C\c3ccoc3)c(=O)n2C)cc1 [Compound 1880, (3Z,6Z)-4-Benzyl-3-(3-furylmethylene)-6-(4-methoxybenzylidene)-1-methyl-2,5-piperazinedione]
IC50 (AR 1.0 cells [2]; [5]): 10 µM

IC50 (AR 1.0 cells [3]; Mus musculus, 1 h): 12 µM
Compound: Cn1c(=O)/c(=C/c2c[nH]c3ccccc23)n(C)c(=O)/c1=C/c1ccccc1 [Compound 1896, (3Z,6Z)-3-Benzylidene-6-(3-indoly)methylene-1,4-dimethyl-2,5-piperazinedione]
IC50 (AR 1.0 cells [2]; [5]): 30 µM
IC50 (AR 1.0 cells [2]; [7]): 4 µM

IC50 (AR 1.0 cells [3]; Mus musculus, 1 h): 3 µM
Compound: Cn1c(=O)/c(=C/c2cn(CN3C(=O)c4ccccc4C3=O)c3ccccc23)n(C)c(=O)/c1=C/c1ccccc1 [Compound 1897]
Potentiation Index (at 5 μM) (AR 1.0 cells [4]): 75
IC50 (AR 1.0 cells [2]; [5]): 50 µM
IC50 (AR 1.0 cells [2]; [7]): 1.5 µM

IC50 (AR 1.0 cells [3]; Mus musculus, 1 h): 10 µM
Compound: Cn1c(=O)/c(=C/c2cn(C(=O)OCc3ccccc3)c3ccccc23)n(C)c(=O)/c1=C/c1ccccc1 [Compound 1940, (3Z,6Z)-3-Benzylidene-6-(1-benzyloxycarbonyl-3-indolyl)methylene-1,4-dimethyl-2,5-piperazinedione]
Potentiation Index (at 5 μM) (AR 1.0 cells [4]): 14
IC50 (AR 1.0 cells [2]; [5]): 7 µM

IC50 (AR 1.0 cells [3]; Mus musculus, 1 h): 10 µM
Compound: Cn1c(=O)/c(=C/c2cn(CCCN3C(=O)c4ccccc4C3=O)c3ccccc23)n(C)c(=O)/c1=C/c1ccccc1 [Compound 1943, (3Z,6Z)-3-Benzylidene-1,4-dimethyl-6-(3-(1-(3-phthalimido)propyl)indolyl)methylene-2,5-piperazinedione]
Potentiation Index (at 5 μM) (AR 1.0 cells [4]): 20
IC50 (AR 1.0 cells [2]; [5]): 60 µM
IC50 (AR 1.0 cells [2]; [7]): 0.2 µM

Compound: COc1ccc(CCN(C)CCCC(C#N)(c2ccc(OC)c(OC)c2)C(C)C)cc1OC (stereo not shown) [Verapamil]
sensitisation of MDR cells to vinca alkaloids (MDR cells): shown to sensitise MDR cells to vinca alkaloids in vitro and in vivo
